Assay results from publication doi:10.1101/2025.05.21.654962v1 (biorxiv, 2025).
pIC50: −log10 of the molar value.

Legend:
[1] = target: T1, NgUPPS (undecaprenyl diphosphate synthase) (Neisseria gonorrhoeae, UniProt Q5F5X2); experiment: crystal structure; type: binding
T1 sequence (Q5F5X2 1-248): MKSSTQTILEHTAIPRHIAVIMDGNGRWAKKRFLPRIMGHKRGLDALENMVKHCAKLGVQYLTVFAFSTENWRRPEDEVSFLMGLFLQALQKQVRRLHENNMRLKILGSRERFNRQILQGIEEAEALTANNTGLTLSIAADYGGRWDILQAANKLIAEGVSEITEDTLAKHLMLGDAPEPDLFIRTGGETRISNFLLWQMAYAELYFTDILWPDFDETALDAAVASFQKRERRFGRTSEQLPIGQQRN

[2] = target: T1, NgUPPS (undecaprenyl diphosphate synthase); experiment: pyrophosphatase-coupled phosphate release, Biomol Green; type: biochemical

O=C(O)c1ncccc1F [GF-0701]
crystal structure (soaking); WAC-MS hit ([1]; region 1, two sites): 9OIW (GF-0701)

Clc1ccc2nc(N3CCNCC3)sc2c1 [PS-0394]
crystal structure (soaking); WAC-MS hit ([1]; region 3, code printed PS-0394 with the PDB id but PS-3094): 9OJB (PS-0394)

Cc1nonc1CO [PS-5549]
crystal structure (soaking); WAC-MS hit ([1]; region 1, two sites): 9OHI (PS-5549)

O=C(O)c1cn2cc(Cl)ccc2n1 [4R-0623]
crystal structure (soaking); WAC-MS hit ([1]; region 1, two sites): 9OHJ (4R-0623)

OCc1ccccc1Cl [PS-5485]
crystal structure (soaking); WAC-MS hit ([1]; region 1): 9OHB (PS-5485)

Nc1cc(-c2cccc(C(F)(F)F)c2)no1 [DA-0841]
crystal structure (soaking); WAC-MS hit ([1]; region 2): 9OIY (DA-0841)

Nc1cc(-c2ccc(C(F)(F)F)cc2)no1 [DA-0854]
crystal structure (soaking); WAC-MS hit ([1]; region 4 (distal end of tunnel)): 9OJ1 (DA-0854)

O=C(O)c1ccc(C(F)(F)F)cn1 [FC-0609]
crystal structure (soaking); WAC-MS hit ([1]; region 4): 9OJA (FC-0609)

Cc1ccc(O)c(-c2cc[nH]n2)c1 [BA-0843]
crystal structure (soaking); WAC-MS hit ([1]; region 3): 9OHP (BA-0843)

Brc1ccc(-c2cc[nH]n2)s1 [PS-4845]
crystal structure (soaking); WAC-MS hit ([1]; region 3): 9OI5 (PS-4845)

OCc1cccs1 [PS-5570]
crystal structure (soaking); WAC-MS hit ([1]; region 1, two sites): 9OHG (PS-5570)

NCc1cccc(O)c1 [PS-3756]
crystal structure (soaking); WAC-MS hit ([1]; region 1): 9OHO (PS-3756)

O=C(Nc1cccc(Oc2ccc(C(=O)O)c(C(=O)O)c2)c1)c1ccc(-c2ccccc2)cc1 [compound 10, 4-{3-[(biphenyl-4-ylcarbonyl)amino]phenoxy}benzene-1,2-dicarboxylic acid]
pIC50 [2]: 5.47

O=C(O)c1cc(C(F)(F)F)ccn1 [FD-0739]
crystal structure (soaking); WAC-MS hit ([1]; region 2): 9OI6 (FD-0739)

Brc1ccsc1-c1ccn[nH]1 [4W-0801]
crystal structure (soaking); WAC-MS hit ([1]; region 3 (hydrophobic core)): 9OIV (4W-0801)

O=C(O)c1ccc(Br)cn1 [5Br-P]
crystal structure (soaking); WAC-MS hit ([1]; region 2): 9OJE (5Br-P)
